Reference: ChEMBL document CHEMBL5678818, “Discovery of potent SOS1 inhibitors that block RAS activation via disruption of the RAS-SOS1 interaction” (Proc Natl Acad Sci U S A, 2019)

Assays:
[1] = target: Insulin receptor (Homo sapiens) (UniProt P06213); assay: Inhibition of INSR (unknown origin) assessed as residual activity at 1000 nM by KINOMEscan analysis relative to control
[2] = target: T1, Serine/threonine-protein kinase TAO1 (Homo sapiens) (UniProt Q7L7X3); assay: Inhibition of TAOK1 (unknown origin) assessed as residual activity at 1000 nM by KINOMEscan analysis relative to control
T1 sequence (whole entry): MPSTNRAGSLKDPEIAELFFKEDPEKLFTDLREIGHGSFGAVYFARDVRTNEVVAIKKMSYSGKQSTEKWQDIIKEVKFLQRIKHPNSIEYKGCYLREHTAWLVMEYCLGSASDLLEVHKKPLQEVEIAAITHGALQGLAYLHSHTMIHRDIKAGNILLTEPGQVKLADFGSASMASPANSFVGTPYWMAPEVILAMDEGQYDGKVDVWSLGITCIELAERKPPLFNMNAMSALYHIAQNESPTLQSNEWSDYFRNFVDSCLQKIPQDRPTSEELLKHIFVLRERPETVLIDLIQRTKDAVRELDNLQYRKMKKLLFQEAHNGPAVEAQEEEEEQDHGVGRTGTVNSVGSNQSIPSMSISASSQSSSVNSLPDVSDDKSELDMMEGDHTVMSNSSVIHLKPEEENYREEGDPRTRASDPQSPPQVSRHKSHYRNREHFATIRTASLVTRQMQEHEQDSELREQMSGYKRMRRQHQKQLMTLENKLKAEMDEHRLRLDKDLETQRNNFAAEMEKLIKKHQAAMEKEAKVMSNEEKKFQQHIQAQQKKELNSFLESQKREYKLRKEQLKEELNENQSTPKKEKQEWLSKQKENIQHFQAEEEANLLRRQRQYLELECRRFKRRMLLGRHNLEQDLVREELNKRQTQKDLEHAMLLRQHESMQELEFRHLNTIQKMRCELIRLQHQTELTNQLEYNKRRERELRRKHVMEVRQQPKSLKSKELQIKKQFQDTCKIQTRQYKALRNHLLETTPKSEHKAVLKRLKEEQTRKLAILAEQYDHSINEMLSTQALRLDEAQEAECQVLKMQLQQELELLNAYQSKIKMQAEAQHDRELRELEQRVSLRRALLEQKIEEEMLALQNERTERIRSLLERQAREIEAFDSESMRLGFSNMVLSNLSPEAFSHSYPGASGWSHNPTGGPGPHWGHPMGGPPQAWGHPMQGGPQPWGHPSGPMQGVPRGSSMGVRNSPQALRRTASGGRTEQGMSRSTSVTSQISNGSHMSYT

[3] = target: T2, Protein kinase C iota type (Homo sapiens) (UniProt P41743); assay: Inhibition of PRKCI (unknown origin) assessed as residual activity at 1000 nM by KINOMEscan analysis relative to control
T2 sequence (whole entry): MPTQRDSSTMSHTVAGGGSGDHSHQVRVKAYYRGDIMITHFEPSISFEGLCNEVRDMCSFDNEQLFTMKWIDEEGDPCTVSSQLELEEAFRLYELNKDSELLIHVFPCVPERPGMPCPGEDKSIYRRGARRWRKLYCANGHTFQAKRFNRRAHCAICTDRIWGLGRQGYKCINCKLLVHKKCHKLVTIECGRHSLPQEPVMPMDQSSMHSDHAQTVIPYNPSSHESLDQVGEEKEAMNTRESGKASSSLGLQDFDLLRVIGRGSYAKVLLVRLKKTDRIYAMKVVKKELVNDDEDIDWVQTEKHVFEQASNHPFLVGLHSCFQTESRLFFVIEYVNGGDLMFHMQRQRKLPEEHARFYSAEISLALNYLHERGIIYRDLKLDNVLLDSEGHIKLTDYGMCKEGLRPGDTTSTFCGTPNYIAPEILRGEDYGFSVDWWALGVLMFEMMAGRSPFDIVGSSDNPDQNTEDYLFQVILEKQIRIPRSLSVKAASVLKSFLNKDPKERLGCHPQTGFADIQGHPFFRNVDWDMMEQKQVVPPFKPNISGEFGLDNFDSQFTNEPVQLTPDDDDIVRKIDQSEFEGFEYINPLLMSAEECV

[4] = target: T3, Serine/threonine-protein kinase LATS2 (Homo sapiens) (UniProt Q9NRM7); assay: Inhibition of LATS2 (unknown origin) assessed as residual activity at 1000 nM by KINOMEscan analysis relative to control
T3 sequence (whole entry): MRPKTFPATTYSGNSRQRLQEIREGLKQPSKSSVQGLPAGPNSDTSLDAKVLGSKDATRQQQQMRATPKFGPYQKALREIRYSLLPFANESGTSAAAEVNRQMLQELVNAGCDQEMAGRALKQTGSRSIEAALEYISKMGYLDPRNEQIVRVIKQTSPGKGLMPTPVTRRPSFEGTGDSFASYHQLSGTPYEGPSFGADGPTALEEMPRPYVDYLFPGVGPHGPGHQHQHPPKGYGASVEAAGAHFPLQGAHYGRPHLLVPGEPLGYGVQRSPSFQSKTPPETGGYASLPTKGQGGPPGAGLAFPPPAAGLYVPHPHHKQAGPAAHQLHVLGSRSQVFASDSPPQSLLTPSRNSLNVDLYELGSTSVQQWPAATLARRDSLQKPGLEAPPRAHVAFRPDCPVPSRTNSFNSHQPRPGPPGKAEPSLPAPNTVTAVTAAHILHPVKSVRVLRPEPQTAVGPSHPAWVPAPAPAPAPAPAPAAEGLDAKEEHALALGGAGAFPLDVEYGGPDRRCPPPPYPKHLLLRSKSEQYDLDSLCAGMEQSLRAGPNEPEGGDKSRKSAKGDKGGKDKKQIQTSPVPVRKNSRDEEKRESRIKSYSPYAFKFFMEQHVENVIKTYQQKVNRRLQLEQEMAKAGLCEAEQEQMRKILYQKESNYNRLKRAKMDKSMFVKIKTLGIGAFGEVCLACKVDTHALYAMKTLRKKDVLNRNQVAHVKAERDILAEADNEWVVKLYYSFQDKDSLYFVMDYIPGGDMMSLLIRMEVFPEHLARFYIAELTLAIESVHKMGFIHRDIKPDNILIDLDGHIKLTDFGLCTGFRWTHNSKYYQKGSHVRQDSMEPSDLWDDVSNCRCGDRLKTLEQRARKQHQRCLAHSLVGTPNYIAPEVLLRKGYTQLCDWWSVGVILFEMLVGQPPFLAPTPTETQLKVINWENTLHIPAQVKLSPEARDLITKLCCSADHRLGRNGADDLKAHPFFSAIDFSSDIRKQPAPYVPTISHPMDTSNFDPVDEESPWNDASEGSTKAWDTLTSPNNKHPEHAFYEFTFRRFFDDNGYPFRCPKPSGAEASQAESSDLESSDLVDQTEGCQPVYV

[5] = target: Phosphatidylinositol 4,5-bisphosphate 3-kinase catalytic subunit beta isoform (Homo sapiens) (UniProt P42338); assay: Inhibition of PIK3CB (unknown origin) assessed as residual activity at 1000 nM by KINOMEscan analysis relative to control
Phosphatidylinositol 4,5-bisphosphate 3-kinase catalytic subunit beta isoform (Homo sapiens), sequence (P42338 whole entry, looked up, canonical isoform): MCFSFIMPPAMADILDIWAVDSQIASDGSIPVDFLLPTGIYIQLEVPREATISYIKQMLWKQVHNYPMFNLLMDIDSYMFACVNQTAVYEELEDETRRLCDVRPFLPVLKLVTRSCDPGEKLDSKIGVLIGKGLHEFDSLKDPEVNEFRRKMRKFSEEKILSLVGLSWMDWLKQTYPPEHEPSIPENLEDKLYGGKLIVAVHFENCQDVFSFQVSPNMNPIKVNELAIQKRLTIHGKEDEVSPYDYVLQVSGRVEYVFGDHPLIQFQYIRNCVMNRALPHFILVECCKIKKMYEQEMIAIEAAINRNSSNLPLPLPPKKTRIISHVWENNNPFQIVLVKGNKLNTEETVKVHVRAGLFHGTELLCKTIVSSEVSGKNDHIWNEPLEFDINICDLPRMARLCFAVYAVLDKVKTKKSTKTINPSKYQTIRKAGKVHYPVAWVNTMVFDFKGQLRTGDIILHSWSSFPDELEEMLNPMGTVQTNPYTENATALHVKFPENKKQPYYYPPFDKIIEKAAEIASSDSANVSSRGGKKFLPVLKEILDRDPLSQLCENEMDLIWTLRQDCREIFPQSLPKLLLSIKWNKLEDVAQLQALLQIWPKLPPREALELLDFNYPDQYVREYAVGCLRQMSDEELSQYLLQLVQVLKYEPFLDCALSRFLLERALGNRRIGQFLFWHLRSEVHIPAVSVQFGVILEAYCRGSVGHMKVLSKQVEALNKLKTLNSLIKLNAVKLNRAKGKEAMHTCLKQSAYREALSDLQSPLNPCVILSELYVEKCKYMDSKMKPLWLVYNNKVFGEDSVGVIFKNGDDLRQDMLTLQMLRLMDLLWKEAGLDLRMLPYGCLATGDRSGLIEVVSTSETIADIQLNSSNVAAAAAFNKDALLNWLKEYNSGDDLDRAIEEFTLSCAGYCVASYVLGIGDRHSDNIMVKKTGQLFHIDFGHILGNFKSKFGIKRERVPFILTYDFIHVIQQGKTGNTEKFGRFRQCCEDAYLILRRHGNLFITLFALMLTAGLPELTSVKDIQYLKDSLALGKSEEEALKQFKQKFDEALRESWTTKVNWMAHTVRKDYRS

Insulin receptor (Homo sapiens), sequence (P06213 28-758 limits assumed): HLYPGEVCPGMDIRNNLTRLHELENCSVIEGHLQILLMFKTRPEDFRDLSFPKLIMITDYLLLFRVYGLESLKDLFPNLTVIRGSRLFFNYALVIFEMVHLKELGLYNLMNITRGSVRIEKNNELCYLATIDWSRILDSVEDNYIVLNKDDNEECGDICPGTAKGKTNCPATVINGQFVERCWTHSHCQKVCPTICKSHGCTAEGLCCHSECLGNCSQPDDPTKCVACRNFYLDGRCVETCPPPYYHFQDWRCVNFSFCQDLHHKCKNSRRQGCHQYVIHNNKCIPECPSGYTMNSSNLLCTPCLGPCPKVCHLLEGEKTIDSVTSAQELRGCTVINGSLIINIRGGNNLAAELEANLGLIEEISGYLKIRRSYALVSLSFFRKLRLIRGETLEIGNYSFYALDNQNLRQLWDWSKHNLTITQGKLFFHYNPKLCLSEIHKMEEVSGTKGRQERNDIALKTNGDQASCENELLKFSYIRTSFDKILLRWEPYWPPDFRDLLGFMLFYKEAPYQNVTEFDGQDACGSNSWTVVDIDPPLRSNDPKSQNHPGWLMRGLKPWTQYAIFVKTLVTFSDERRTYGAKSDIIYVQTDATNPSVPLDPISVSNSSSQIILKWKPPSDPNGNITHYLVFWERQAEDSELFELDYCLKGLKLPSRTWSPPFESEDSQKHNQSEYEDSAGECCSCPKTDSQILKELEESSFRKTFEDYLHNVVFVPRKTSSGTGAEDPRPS
Insulin receptor (Homo sapiens), sequence (P06213 763-1382 limits assumed): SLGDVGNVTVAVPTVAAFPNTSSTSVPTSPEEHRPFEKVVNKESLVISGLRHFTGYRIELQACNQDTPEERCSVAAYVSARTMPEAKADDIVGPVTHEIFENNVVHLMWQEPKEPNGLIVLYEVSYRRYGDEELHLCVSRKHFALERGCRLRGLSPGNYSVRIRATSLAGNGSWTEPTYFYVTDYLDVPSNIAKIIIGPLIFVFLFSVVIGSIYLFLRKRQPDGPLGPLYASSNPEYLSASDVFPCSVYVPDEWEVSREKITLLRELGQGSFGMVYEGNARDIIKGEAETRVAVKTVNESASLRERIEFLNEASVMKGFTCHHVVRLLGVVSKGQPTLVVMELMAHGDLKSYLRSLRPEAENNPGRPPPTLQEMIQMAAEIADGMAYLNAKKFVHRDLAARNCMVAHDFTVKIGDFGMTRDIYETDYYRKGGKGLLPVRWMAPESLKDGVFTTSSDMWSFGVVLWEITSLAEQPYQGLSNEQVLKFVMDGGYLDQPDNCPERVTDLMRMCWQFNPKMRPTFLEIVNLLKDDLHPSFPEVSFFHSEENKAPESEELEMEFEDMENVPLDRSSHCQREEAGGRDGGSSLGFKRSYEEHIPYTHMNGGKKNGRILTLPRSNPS

SMILES: COc1cc2nc(C)nc(N[C@H](C)c3cccc(-c4cn[nH]c4)c3)c2cc1OC
- Activity [1]: 80%
- Activity [2]: 100%
- Activity [3]: 61%
- Activity [4]: 100%
- Activity [5]: 89%

SMILES: COc1cc2ncnc(N[C@H](C)c3cccc4ccccc34)c2cc1OC
- Activity [1]: 82%
- Activity [2]: 89%
- Activity [3]: 100%
- Activity [4]: 89%
- Activity [5]: 13%
